From patent publication US4582827A, “Pesticidal diphenylaziridines” (priority 1983, dated 1986)

Legend:
[1] = test system: tobacco hornworm (Manduca sexta) larvae; assay: Tobacco hornworm growth and developmental responses to feeding on diets containing the compounds; type: in vivo
Method: The compounds produced and described in Example 1 were then tested for pesticidal activity against the tobacco hornworm (Manduca sexta). The screening procedure for these tests began with the larval stage and continued through the pupal and adult stages and finally evaluated egg production. The studies thus permitted the evaluation of the effects of the compounds over several subsequent developmental stages in the total life cycle of the insect, giving estimates of acute toxicity (insecticidalor larvicidal activity) as well as prolonged or delayed effects on development (growth regulation) and reproduction (chemosterilization). The latter are of special importance in conjunction with the integrated pest management approach to insect control.
The test compounds were incorporated into the artificial diet of tobacco hornworm larvae and their subsequent growth and developmental responses were monitored using the following parameters: larval mortality including determination of LD50 values, rate of larval development and weight gain, percent pupation, pupal weight and degree of deformities, percent adult emergence and measures of reproductive capacity such as the number of developed ooctyes, fecundity and fertility. The protocol for the screening tests has been developed over a number of years by Dahlman et al., Comp. Biochem. Physiol. 51A, 33, (1975); Comp. Biochem. Physiol., 52A, 105 (1975); Ent. Exp. et Appl., 22, 123 (1977); Palumbo and D. L. Dahlman, J. Econ. Entomol. 71, 674 (1978); D. L. Dahlman, Ent. Exp. et Appl., 24, 327 (1978).
Each treatment used 15 newly ecdysed fifth-instar larvae. Death of larvae within a few hours to several days of initial exposure was considered to be acute toxicity. However, the compounds may reduce the maximum size attained by larvae and/or may retard growth so that larvae require additional time to attain their maximum size. Developmental parameters subsequent to the feeding stage also may be affected. […] Mortality may occur in the pupal stage or emerging adults may have wrinkled wings or other deformities. The number of eggs produced by treated females may be reduced and/or unfertile. Although acute toxicity is desirable in the control of any insect, the delayed effects which result in poor survival and reduced reproductive capacity are significant factors in the long-range program of pest management systems.
Continuous cultures of M. sexta are maintained according to the procedures of Yamamoto, J. Econ. Entomol., 62, p. 1427 (1969). Ingredients of the diet formulation include sugar, casein, wheat germ oil, cholesterol, salt mixture, yeast, vitamins, antioxidants and fungal inhibitors, such as ascorbic acid, sorbic acid, formaldehyde and methyl-p-benzoate. All are incorporated into a liquid agar base which, when poured into holding pans, solidifies to form an adequate substrate upon which the insect larvae feed. Nearly any test material can be uniformly incorporated into such a diet. Thus, exposure to experimental compounds can be evaluated during all or any part of the larval stage. In addition, chronic or long-term effects in subsequent life stages can also be monitored.
The results from these studies, in which the 1,2-diphenylaziridines of Example 1 were incorporated singly into the diet of M. sexta at a concentration of 5 mM are presented in the following Table I.

[2] = test system: tobacco hornworm larvae (newly ecdysed fifth-instar); assay: Topical application to tobacco hornworm larvae; type: in vivo, Manduca sexta
Method: The test compounds were dissolved either in acetone or hexane and applied to the integument of the test insect with a micro applicator. Newly ecdysed fifth-instar tobacco hornworm larvae weighing between 1-1.5 g were used and toxicity data were obtained in the same way as previously described.

H. virescens = assay: Incorporation into H. virescens diet; type: in vivo, Heliothis virescens; conditions: as much as 20 mM in diet
Method: Compounds 1, 10, 11, 13 and 14 were incorporated into H. virescens diet in the same manner as M. Sexta. Diets containing as much as 20 mM of each compound had little effect on larval development time, pupal weight or time to adult emergence.

H. virescens larvae = assay: Topical application to H. virescens larvae; type: in vivo, Heliothis virescens; conditions: for larvae killed: within 48 hr
[3] = test system: Malacosoma americanum (larvae); assay: Topical application study, Malacosoma americanum larvae; type: in vivo; conditions: 1000 μg/g, approx. 500 mg, w/in 24 hr
Description: (§1) Preliminary tests with topical applications of Compound 13 have been conducted on a number of insect species representing 5 different orders. Since the same amount of compound was used, regardless of body size, the smaller species received a larger dose/body mass. More extensive work will be required to establish LD50 values. […]

Estigmene acrea (larvae) = assay: Topical application study, Estigmene acrea larvae; type: in vivo; conditions: 1250 μg/g, approx. 800 mg, w/in 24 hr
Description: as §1

[4] = test system: Hyphantria cunea (larvae); assay: Topical application study, Hyphantria cunea larvae; type: in vivo; conditions: 5000 μg/g, approx. 100 mg, w/in 24 hr
Description: as §1

[5] = test system: Ostrinia nubilalis (larvae); assay: Topical application study, Ostrinia nubilalis larvae; type: in vivo; conditions: 6250 μg/g, approx. 80 mg; nearing pupation size at time of treatment
Description: as §1

[6] = test system: Popillia japonica (larvae); assay: Topical application study, Popillia japonica larvae; type: in vivo; conditions: 500 μg/g, approx. 250 mg, w/in 24 hr
Description: as §1

Musca domestica (Adult) = assay: Topical application study, Musca domestica adult; type: in vivo; conditions: 25,000 μg/g
Description: as §1

Musca autumnalis (Adult) = assay: Topical application study, Musca autumnalis adult; type: in vivo; conditions: 25,000 μg/g
Description: as §1

[7] = test system: Podisus maculiventris (nymphs & adults); assay: Topical application study, Podisus maculiventris nymphs & adults; type: in vivo; conditions: 10,000 μg/g
Description: as §1

[8] = test system: Periplaneta americana (adult); assay: Topical application study, Periplaneta americana adult; type: in vivo; conditions: 666 μg/g, approx. 750 mg, w/in 24 hr
Description: as §1

[9] = test system: Blattella germanica (adult); assay: Topical application study, Blattella germanica adult; type: in vivo; conditions: 7150 μg/g, approx. 70 mg, w/in 24 hr
Description: as §1

[10] = test system: Blaberus discoidalis (nymphs); assay: Topical application study, Blaberus discoidalis nymphs; type: in vivo; conditions: 1000 μg/g, approx. 500 mg, w/in 24 hr
Description: as §1

mammals = conditions: cited from earlier work
[11] = 5 mM in diet, all tests began with 15 larvae
[12] = 1500 ppm topical, 200 mg 5th instars

Fc1ccc(N2CC2c2ccccc2Cl)cc1 (centres unmarked) [Compound 13]
% Adult Emergence ([1]; 1 mM in diet): 100%
% Adults ([1]; 1 mM in diet): 100%
% Malformed Adults ([1]; 1 mM in diet): 7%
% Pupation ([1]; 1 mM in diet): 100%
Days to Max Wt ([1]; 1 mM in diet): 6.7 ± .2 days
Max Larval Wt ([1]; 1 mM in diet): 9.50 g
Mean No. of Eggs ([1]; 1 mM in diet): 71 ± 8
No. of female Adults ([1]; 1 mM in diet): 11
Total No. of Adults ([1]; 1 mM in diet): 15
% Adult Emergence ([1]; 2.5 mM in diet): 86%
% Adults ([1]; 2.5 mM in diet): 86%
% Malformed Adults ([1]; 2.5 mM in diet): 0%
% Pupation ([1]; 2.5 mM in diet): 100%
Days to Max Wt ([1]; 2.5 mM in diet): 8.7 ± 0.5 days
Max Larval Wt ([1]; 2.5 mM in diet): 8.03 g
Mean No. of Eggs ([1]; 2.5 mM in diet): 21 ± 9
No. of female Adults ([1]; 2.5 mM in diet): 9
Total No. of Adults ([1]; 2.5 mM in diet): 12
maximum larval weight and mean number of eggs ([1]; 2.5 mM in diet): reduced maximum larval weight and the mean number of eggs
% Adult Emergence ([1]; 5 mM in diet): 13%
% Malformed Adults ([1]; 5 mM in diet): 50%
% Pupation ([1]; 5 mM in diet): 13%
Days to Max Wt ([1]; 5 mM in diet): 10.0 ± 4.2 days
Max Larval Wt ([1]; 5 mM in diet): 6.13 ± .62 g
No. of female Adults ([1]; 5 mM in diet): 0
larval mortality ([1]; 5 mM in diet): all or nearly all larvae died
weight gain of surviving larvae ([1]; 5 mM in diet): no weight gain for 4 or more days
wrinkled or crumpled wings of moths ([1]; 5 mM in diet): observed in significant numbers of moths
larvae dead by day two ([1]; 5 mM in diet, day two): 60%
Total No. of Adults [1, 11]: 2
oral activity ([1]; diet, Example 2): good oral activity
larval mortality (acute toxicity) ([1]; in 24-72 hours, summary of Tables I and II): 100%
time to 100% larval mortality ([1]; summary of Tables I and II): 24 to 72 h
mortality at 125 µg/larva ([2]; Manduca sexta, topical, 125 μg/larva (100 μg/g or 100 ppm), within 24 hr): 60%
topical activity against the tobacco hornworm (comparison in words) ([2]; topical): the greatest topical activity
larval size and number of eggs ([2]; topical, 50 and 25 ppm): reduced larval size and smaller number of eggs
effect on larval development time, pupal weight or time to adult emergence (H. virescens): little effect
mortality (H. virescens larvae; [12]): failed to kill any of the larvae
symptoms (H. virescens larvae; [12]): produced some of the symptoms characteristic of this group of compounds
mortality at 1000 µg/g [3]: 100%
mortality at 1250 µg/g (Estigmene acrea (larvae)): 33%
mortality at 5000 µg/g [4]: 50%
Result [5]: No effect
mortality at 500 µg/g [6]: 100%
time to 100% mortality (Musca domestica (Adult)): ≤ 1.5 h
mortality at 25000 µg/g (Musca domestica (Adult); Musca domestica, topical, approx. 20 mg, 2/in 1.5 hr): 100%
time to 100% mortality (Musca autumnalis (Adult)): ≤ 2 h
mortality at 25000 µg/g (Musca autumnalis (Adult); Musca autumnalis, topical, approx. 20 mg, w/in 2 hr): 100%
time to 100% mortality [7]: ≤ 1.2 h
mortality at 10000 µg/g ([7]; Podisus maculiventris, topical, approx. 50 mg, w/in 1.2 hr): 100%
mortality at 666 µg/g [8]: 100%
mortality at 7150 µg/g [9]: 100%
mortality at 1000 µg/g [10]: 100%

Fc1ccc(N2CC2c2ccccc2F)cc1 (centres unmarked) [Compound 15]
% Adult Emergence ([1]; 5 mM in diet): 60%
% Malformed Adults ([1]; 5 mM in diet): 0%
% Pupation ([1]; 5 mM in diet): 67%
Days to Max Wt ([1]; 5 mM in diet): 6.7 ± .4 days
Max Larval Wt ([1]; 5 mM in diet): 8.04 ± .41 g
Mean No. of Eggs ([1]; 5 mM in diet): 67 ± 42
No. of female Adults ([1]; 5 mM in diet): 3
Total No. of Adults [1, 11]: 9
size of surviving larvae ([2]; 125 μg/larvae): smaller than controls
mortality at 125 µg/larva ([2]; Manduca sexta, topical, 125 μg/larvae, during the entire 5th instar): 20%
mortality at 250 µg/larva ([2]; Manduca sexta, topical, 250 μg/larva, within 24 hr): 100%
larvae killed (H. virescens larvae; 62.5 μg/larva or 625 ppm topical, 100 mg larvae): 60%
larvae killed (H. virescens larvae; 312 ppm topical): 40%

CC1CN1P(=O)(N1CC1C)N1CC1C (centres unmarked) [metepa, tris(2-methyl-1-aziridinyl)phosphine oxide]
toxicity reported in the literature (mammals): carcinogenic and mutagenic properties

O=P(N1CC1)(N1CC1)N1CC1 [tepa, tris(1-aziridinyl)-phosphine oxide]
toxicity reported in the literature (mammals): carcinogenic and mutagenic properties
